According to US8367366B2, “Methods and kits for quantitative methyltransferase and demethylase measurements” (The Board of Trustees of the University of Arkansas, priority 2010, dated 2013):

Molecular target: LSD1 (Homo sapiens, UniProt O60341)
Test: biochemical
Conditions: read-out: inhibits LSD1 activity
Experimental: MassSQUIRM Lysine residues were chemically dimethylated using a reductive methylation technique adapted from Rayment, et al (21). […] This reaction was incubated for 2 hours at 4° C. Fresh aliquots of borane dimethylamine and formaldehyde were added and the reaction was again incubated at 4° C. for two hours. A final aliquot of borane dimethylamine was added and the reaction was incubated at 4° C. for ˜16 hours. The reaction was quenched with 80 mM Tris-Cl, pH 7.5. Peptides were incubated with POROS R220 micron beads (Applied Biosystems), collected with a C18 ZipTip™ (Millipore) and spotted for MALDI analysis in 2,5-dihydroxybenzoic acid. Mass spectra of peptides were collected with a MALDI-prOTOF mass spectrometer (PerkinElmerSciex) (61, 62). Spectra were viewed and peak areas extracted using MoverZ™ software (Genomic Solutions). Reaction products were verified by MS^2 with a Thermo LTQ XL mass spectrometer coupled to a NanoLC-2D™ liquid chromatography system (Eksigent).
Demethylase Assay. […] The reaction proceeded for 2 hr at 37° C. Reaction products were collected with POROS R2 20 micron beads for 15 minutes at room temperature, loaded into a C18 ZipTip, eluted in 40 μL 70% acetonitrile/0.1% TFA, lyophilized, and subjected to MassSQUIRM as described above.
LSD1 Inhibition Assay. […]

Question: `NNCCc1ccccc1` [phenylethylhydrazine] was tested. Which inhibition at 16700 µM did it give?
Answer: 96%
